Experimental findings from patent US10988477B2 (Merck Patent GmbH, priority 2018, dated 2021) are described below.

One assay concerns the target GCN2 kinase (Homo sapiens, UniProt Q9P2K8). Put plainly: GCN2 enzyme inhibition assay (Transcreener ADP2 fluorescence polarization). The class given is biochemical. The conditions noted are these: 280 μM ATP. Summed up: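 4 nM GCN2 + 200 μM (RS)7 + compound (0–8 μM), 10 min preinc.; start with ATP (280 μM final); 1 h, 25 °C; pH 7.5 Tris/NaCl/MgCl2/DTT; ADP FP readout; IC50, Ki(app) via tight-binding fit.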
In general terms: Polarisation of emitted light reports the rotation of a fluorescent probe.

Assay [1] deals with intracellular GCN2 (phosphorylation of the GCN2 substrate eIF2α) (Homo sapiens, UniProt Q9P2K8). Put plainly: GCN2 cellular inhibition assay (AlphaScreen SureFire P-eIF2α Ser51, borrelidin-treated U2OS cells). The conditions noted are these: biomarker assay, phosphorylated eIF2α Ser51 in borrelidin-treated U2OS cells. The format is cell-based. Summed up:
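Borrelidin at 10 μM is added to U2OS cells immediately after compound (4-fold dilution series, 40 μM top final) for 1 h at 37 °C. Phosphorylated eIF2α Ser51 in lysates is quantified by AlphaScreen and expressed as percent inhibition against borrelidin-stimulated controls.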
Background: Alpha assays give light when donor and acceptor beads are brought close together.

[2] abbreviates: compounds of Formula II, 4 nM GCN2 kinase.
The mark [3] stands for this setting: Enzyme activity for compounds of Formula IV, Ki(app), 25° C.

Where a name gives a salt, the structure may show the parent alone. Where only a bound is given, the exact number is not on record here.

Sequence of GCN2 kinase (Q9P2K8 whole entry): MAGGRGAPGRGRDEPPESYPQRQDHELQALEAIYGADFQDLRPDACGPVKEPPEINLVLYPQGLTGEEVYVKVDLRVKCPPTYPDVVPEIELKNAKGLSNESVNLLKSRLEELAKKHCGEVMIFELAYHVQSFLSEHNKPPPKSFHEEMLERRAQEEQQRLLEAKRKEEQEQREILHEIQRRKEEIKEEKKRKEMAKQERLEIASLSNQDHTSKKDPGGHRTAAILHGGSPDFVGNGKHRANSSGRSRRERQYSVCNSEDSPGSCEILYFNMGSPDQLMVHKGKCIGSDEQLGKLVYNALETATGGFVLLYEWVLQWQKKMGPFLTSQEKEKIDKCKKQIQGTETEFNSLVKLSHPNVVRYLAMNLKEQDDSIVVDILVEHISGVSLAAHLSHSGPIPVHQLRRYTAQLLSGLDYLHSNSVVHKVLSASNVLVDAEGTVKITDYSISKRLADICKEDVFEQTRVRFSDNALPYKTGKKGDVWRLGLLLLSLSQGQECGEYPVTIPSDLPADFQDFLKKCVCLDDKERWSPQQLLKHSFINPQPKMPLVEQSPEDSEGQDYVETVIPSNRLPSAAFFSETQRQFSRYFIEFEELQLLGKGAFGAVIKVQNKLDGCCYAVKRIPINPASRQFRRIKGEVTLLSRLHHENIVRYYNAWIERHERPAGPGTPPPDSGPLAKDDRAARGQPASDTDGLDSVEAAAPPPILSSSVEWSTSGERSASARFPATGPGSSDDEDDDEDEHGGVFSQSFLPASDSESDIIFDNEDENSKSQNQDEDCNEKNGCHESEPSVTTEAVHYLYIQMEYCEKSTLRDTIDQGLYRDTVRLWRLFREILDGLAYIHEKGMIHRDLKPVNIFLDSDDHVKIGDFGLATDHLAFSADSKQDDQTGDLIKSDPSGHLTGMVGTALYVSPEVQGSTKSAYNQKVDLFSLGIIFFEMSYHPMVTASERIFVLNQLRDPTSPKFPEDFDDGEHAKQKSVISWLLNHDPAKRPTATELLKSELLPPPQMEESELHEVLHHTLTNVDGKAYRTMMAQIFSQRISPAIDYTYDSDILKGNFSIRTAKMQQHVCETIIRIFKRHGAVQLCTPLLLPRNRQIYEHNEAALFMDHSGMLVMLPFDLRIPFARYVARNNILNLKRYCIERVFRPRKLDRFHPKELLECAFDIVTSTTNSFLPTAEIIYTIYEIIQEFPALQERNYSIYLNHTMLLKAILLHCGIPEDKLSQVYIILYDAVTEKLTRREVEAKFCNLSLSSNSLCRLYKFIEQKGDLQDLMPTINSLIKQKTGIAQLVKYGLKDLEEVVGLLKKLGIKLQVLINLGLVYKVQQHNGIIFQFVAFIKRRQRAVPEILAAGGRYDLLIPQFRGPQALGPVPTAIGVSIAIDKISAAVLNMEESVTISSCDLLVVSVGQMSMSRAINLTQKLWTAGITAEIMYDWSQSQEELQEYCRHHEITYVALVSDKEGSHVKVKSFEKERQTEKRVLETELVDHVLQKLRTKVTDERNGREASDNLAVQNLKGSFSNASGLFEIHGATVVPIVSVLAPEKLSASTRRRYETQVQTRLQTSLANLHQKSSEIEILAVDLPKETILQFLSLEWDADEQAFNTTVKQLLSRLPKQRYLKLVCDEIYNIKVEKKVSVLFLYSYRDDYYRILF
Sequence of intracellular GCN2 (phosphorylation of the GCN2 substrate eIF2α) (Q9P2K8 whole entry): as above

A word on the IC50: it is the concentration that gives 50% inhibition. Low readings indicate inhibition by little substance, high ones a need for much substance. Turning to `CC1CN(c2cc(-c3cnc4ccc(C(F)F)nn34)ncn2)C(C)C(CNS(C)(=O)=O)N1` (stereo not drawn) [II-427, N-((4-(6-(6-(Difluoromethyl)imidazo[1,2-b]pyridazin-3-yl)pyrimidin-4-yl)-3,6-dimethylpiperazin-2-yl)methyl)methanesulfonamide], the Ki at GCN2 kinase (setting [2]) was less than 10 nM. In assay [1] (compounds of Formula II), the IC50 is less than 500 nM.

`NC(=O)C1CCCN(c2ccnc(-c3cnc4cnc(C(F)(F)F)cn34)n2)C1` (stereo not drawn) [IV-626, 1-(2-(6-(Trifluoromethyl)imidazo[1,2-a]pyrazin-3-yl)pyrimidin-4-yl)piperidine-3-carboxamide] returned a Ki on GCN2 kinase (setting [3]) of less than 10 nM. In assay [1] (compounds of Formula IV), this compound had an IC50 of 500 to 5000 nM.

`OC[C@@H]1CN(c2cc(-c3cnc4ccc(C(F)F)nn34)ncn2)C[C@@H](C(F)(F)F)O1` [II-297, ((2S,6S)-4-(6-(6-(Difluoromethyl)imidazo[1,2-b]pyridazin-3-yl)pyrimidin-4-yl)-6-(trifluoromethyl)morpholin-2-yl)methanol] returned a Ki at GCN2 kinase (setting [2]) of 10 to 1000 nM. This compound also gave an IC50 in assay [1] (compounds of Formula II) of 500 to 5000 nM.

Turning to `CCC1C(CNS(C)(=O)=O)CCCN1c1cc(-c2cnc3ccc(C(F)F)nn23)ncn1` (single isomer, unassigned) [II-416], on GCN2 kinase (setting [2]), the Ki is less than 10 nM. This compound displayed an IC50 in assay [1] (compounds of Formula II) of less than 500 nM.

Regarding `CS(=O)(=O)N1CCC2CCN(c3ccnc(-c4cnc5cnc(C(F)F)cn45)n3)CC21` (stereo not drawn) [IV-144, 6-(Difluoromethyl)-3-(4-(1-(methylsulfonyl)octahydro-6H-pyrrolo[2,3-a]pyridin-6-yl)pyrimidin-2-yl)imidazo[1,2-a]pyrazine], the Ki at GCN2 kinase (setting [3]) was in the range of 100 to 1000 nM. In assay [1] (compounds of Formula IV), this compound came in with an IC50 of 500 to 5000 nM.

Consider `CC1C(CO)OCCN1c1cc(-c2cnc3ccc(C(F)F)nn23)ncn1` (stereo not drawn) [II-342, (4-(6-(6-(Difluoromethyl)imidazo[1,2-b]pyridazin-3-yl)pyrimidin-4-yl)-3-methylmorpholin-2-yl)methanol], for which, on GCN2 kinase (setting [2]), the Ki was 10 to 1000 nM. In assay [1] (compounds of Formula II), this compound showed an IC50 of 500 to 5000 nM.

Compound `CC1=C(F)C(CNS(C)(=O)=O)CN(c2cc(-c3cnc4ccc(C(F)F)nn34)ncn2)C1` (stereo not drawn) [II-538, N-((1-(6-(6-(Difluoromethyl)imidazo[1,2-b]pyridazin-3-yl)pyrimidin-4-yl)-4-fluoro-5-methyl-1,2,3,6-tetrahydropyridin-3-yl)methyl)methanesulfonamide] came in with a Ki at GCN2 kinase (setting [2]) of less than 10 nM. Besides, the IC50 in assay [1] (compounds of Formula II) was less than 500 nM.

Consider `COc1ccc2ncc(-c3ccnc(N4CCN(C(C)=O)CC4)c3)n2n1` [II-204, 1-(4-(4-(6-Methoxyimidazo[1,2-b]pyridazin-3-yl)pyridin-2-yl)piperazin-1-yl)ethan-1-one trifluoroacetate], for which the Ki on GCN2 kinase (setting [2]) is 10 to 1000 nM. In assay [1] (compounds of Formula II), this compound displayed an IC50 of more than 5000 nM.

`c1cc(N2CCOC(c3cn[nH]c3)C2)nc(-c2cnc3cnc(C4CC4)cn23)n1` (stereo not drawn) [IV-4, 4-(2-(6-Cyclopropylimidazo[1,2-a]pyrazin-3-yl)pyrimidin-4-yl)-2-(1H-pyrazol-4-yl)morpholine]: the Ki at GCN2 kinase (setting [3]) is less than 10 nM. Besides, in assay [1] (compounds of Formula IV), the IC50 fell in the range of 500 to 5000 nM.

`CC1C(CNS(C)(=O)=O)C(F)(F)CCN1c1cc(-c2cnc3ccc(C(F)F)nn23)ncn1` (stereo not drawn) [II-431, N-((1-(6-(6-(Difluoromethyl)imidazo[1,2-b]pyridazin-3-yl)pyrimidin-4-yl)-4,4-difluoro-2-methylpiperidin-3-yl)methyl)methanesulfonamide] registered a Ki at GCN2 kinase (setting [2]) of less than 10 nM. In assay [1] (compounds of Formula II), this compound had an IC50 of less than 500 nM.

At GCN2 kinase (setting [2]), `CS(=O)(=O)N1CCCC2(CN(c3cc(-c4cnc5ccc(C(F)F)nn45)ncn3)C2)C1` [II-279, 6-(Difluoromethyl)-3-(6-(6-(methylsulfonyl)-2,6-diazaspiro[3.5]nonan-2-yl)pyrimidin-4-yl)imidazo[1,2-b]pyridazine] gave a Ki of 10 to 1000 nM. Moreover, in assay [1] (compounds of Formula II), the IC50 was more than 5000 nM.

Compound `CC1CN(c2ccnc(-c3cnc4cnc(Br)cn34)n2)C(C)C(c2c[nH]cn2)N1` (single isomer, unassigned) [IV-376, 3-(4-(3-(1H-Imidazol-4-yl)-2,5-dimethylpiperazin-1-yl)pyrimidin-2-yl)-6-bromoimidazo[1,2-a]pyrazine] showed a Ki at GCN2 kinase (setting [3]) of less than 10 nM. The same compound had an IC50 in assay [1] (compounds of Formula IV) of 500 to 5000 nM.

On to `CS(=O)(=O)NCC1CC(O)CN(c2cc(-c3cnc4ccc(C(F)F)nn34)ncn2)C1` (stereo not drawn) [II-13, N-((1-(6-(6-(Difluoromethyl)imidazo[1,2-b]pyridazin-3-yl)pyrimidin-4-yl)-5-hydroxypiperidin-3-yl)methyl)methanesulfonamide], for which the Ki on GCN2 kinase (setting [2]) was less than 10 nM. This compound came in with an IC50 in assay [1] (compounds of Formula II) of 500 to 5000 nM.

On GCN2 kinase (setting [3]), `FC(F)c1cn2c(-c3nccc(N4CCOC(c5cn[nH]c5)C4)n3)cnc2cn1` (stereo not drawn) [IV-28, 4-(2-(6-(Difluoromethyl)imidazo[1,2-a]pyrazin-3-yl)pyrimidin-4-yl)-2-(1H-pyrazol-4-yl)morpholine] returned a Ki of 10 to 100 nM. The compound also showed an IC50 in assay [1] (compounds of Formula IV) of 500 to 5000 nM.

`Cc1[nH]ncc1C1CN(c2ccnc(-c3cnc4cnc(C(F)(F)F)cn34)n2)CC(C)N1` (single isomer, unassigned) [IV-458, 3-(4-(3-Methyl-5-(5-methyl-1H-pyrazol-4-yl)piperazin-1-yl)pyrimidin-2-yl)-6-(trifluoromethyl)imidazo[1,2-a]pyrazine] returned a Ki at GCN2 kinase (setting [3]) of 100 to 1000 nM. Besides, the IC50 in assay [1] (compounds of Formula IV) was more than 5000 nM.

`COC1CC(CNS(C)(=O)=O)CN(c2cc(-c3cnc4ccc(C(F)F)nn34)ncn2)C1` (stereo not drawn) [II-198, N-((1-(6-(6-(Difluoromethyl)imidazo[1,2-b]pyridazin-3-yl)pyrimidin-4-yl)-5-methoxypiperidin-3-yl)methyl)methanesulfonamide]: the Ki on GCN2 kinase (setting [2]) lay in the range of 10 to 1000 nM. For the same compound, in assay [1] (compounds of Formula II), the IC50 is more than 5000 nM.

In the case of `CC1C(CNS(C)(=O)=O)CCCN1c1cc(-c2cnc3ccc(C(F)F)nn23)ncn1` (single isomer, unassigned) [II-263, N-((1-(6-(6-(Difluoromethyl)imidazo[1,2-b]pyridazin-3-yl)pyrimidin-4-yl)-2-methylpiperidin-3-yl)methyl)methanesulfonamide], the Ki on GCN2 kinase (setting [2]) lay within 10 to 1000 nM. Besides, in assay [1] (compounds of Formula II), the IC50 lay within 500 to 5000 nM.

Take `CCN1CCN(c2ccnc(-c3cnc4cnc(Br)cn34)n2)[C@@H](C)[C@H]1c1cn[nH]c1` (single isomer, unassigned) [IV-401, Cis-6-Bromo-3-(4-(4-ethyl-2-methyl-3-(1H-pyrazol-4-yl)piperazin-1-yl)pyrimidin-2-yl)imidazo[1,2-a]pyrazine]: the Ki on GCN2 kinase (setting [3]) was in the range of 10 to 100 nM. In assay [1] (compounds of Formula IV), this compound showed an IC50 of 500 to 5000 nM.

On to `FC(F)c1cn2c(-c3nccc(N4CCCCCC4)n3)cnc2cn1` [IV-105, 3-(4-(Azepan-1-yl)pyrimidin-2-yl)-6-(difluoromethyl)imidazo[1,2-a]pyrazine], for which, on GCN2 kinase (setting [3]), the Ki fell in the range of 100 to 1000 nM. This compound also gave an IC50 in assay [1] (compounds of Formula IV) of more than 5000 nM.

With `NC(=O)C1CN(c2ccnc(-c3cnc4cnc(C(F)F)cn34)n2)CCO1` (stereo not drawn) [IV-48, 4-(2-(6-(Difluoromethyl)imidazo[1,2-a]pyrazin-3-yl)pyrimidin-4-yl)morpholine-2-carboxamide], the Ki at GCN2 kinase (setting [3]) is 100 to 1000 nM. In assay [1] (compounds of Formula IV), this compound came in with an IC50 of more than 5000 nM.

`Cc1[nH]ncc1C1CN(c2ccnc(-c3cnc4cnc(C(F)F)cn34)n2)CC(C)N1` (single isomer, unassigned) [IV-463, 6-(Difluoromethyl)-3-(4-(3-methyl-5-(5-methyl-1H-pyrazol-4-yl)piperazin-1-yl)pyrimidin-2-yl)imidazo[1,2-a]pyrazine] came in with a Ki at GCN2 kinase (setting [3]) of 100 to 1000 nM. In assay [1] (compounds of Formula IV), this compound yielded an IC50 of more than 5000 nM.
